Experimental data published in EP2173340B1, “METHODS OF ENHANCING COGNITIVE FUNCTION USING NON-PEPTIDIC COMPOUNDS” (Acumen Pharmaceuticals, Inc., priority 2007, dated 2009).

How the values were obtained:
[1] = molecular target: T1, Aβ1-42 (Homo sapiens, UniProt P05067); experiment: FRET assay of Aβ1-42 oligomer (ADDL) formation; type: biochemical; conditions: for IC50: assay of Example 1, 0.2 µM FITC-Aβ(1-42) and 0.8 µM Aβ(1-42), 100 mM MgCl2, pH 8.0, 37°C
T1 construct: containing 0.2 µM FITC-Aβ(1-42) and 0.8 µM Aβ(1-42)
Excerpt: Fluorescence (or Förster) Resonance Energy Transfer (FRET) is a distance-dependent, non-radiative transfer of energy in which the de-excitation of one fluorophore (donor) is coupled to excitation of another fluorophore (acceptor). FRET occurs if (1) the quantum of energy emitted by a donor fluorophore corresponds to an acceptor fluorophore's excitation energy, (2) the orientations of donor and acceptor transition dipoles are nearly parallel and (3) the donor fluorescent emission spectrum overlaps the acceptor absorption spectrum.
In this assay, Aβ1-42 oligomer formation is monitored by FRET using N-terminal conjugates of fluorescein-Aβ1-42 as both the donor and acceptor fluorophore (fluorescein-fluorescein Ro∼45 Å). […] Inhibition of Aβ1-42 assembly is observed as the absence or attenuation of fluorescein quenching.
FRET and FP assays are performed in 384-well Coming Non-Binding Surface, black, opaque microtiter plates, and the assay buffer consists of 50 mM MOPS-Tris (pH 8.0) with 100 mM MgCl2. […] ADDL assembly is monitored on a Tecan GENios Pro plate reader, exciting at a wavelength of 485 nm and detecting emission at a wavelength of 515 nm. Kinetic traces are collected by recording fluorescence intensity and polarization readings every five minutes over about three to about a six-hour time course. […] Positive control reactions contain all buffer components in the absence of added small molecule or antibody reagents. […]

[2] = molecular target: T2, Aβ1-42 ADDLs (Homo sapiens, UniProt P05067); experiment: Alternating Lever Cyclic Ratio (ALCR) rat model; type: in vivo; conditions: for Approach Errors Mean / Perseveration Errors Mean: 20 µl via cannula aimed at lateral ventricle, tested about 3 hours following injection, base line error rate equalized to 1.00
T2 construct: Synthetic Aβ1-42 powder was dissolved in 1,1,1,3,3,3 hexafluorisopropanol (HFIP)
Experimental: Preparations of Aβ1-42 ADDLs and a potential therapeutic compounds under the Alternating Lever Cyclic Ratio (ALCR) rat model of AD were tested. This highly sensitive model has been able to detect cognitive deficits due to direct injection of cell-derived Aβ oligomers into rat brain. In this study, a direct injection of ADDLs made from synthetic Aβ1-42 and a putative therapeutic compound under the ALCR procedure were tested.
The ALCR test has proven to be much more sensitive than previously published methods for measuring drug effects on cognitive function. In this task, rats must learn a complex sequence of lever-pressing requirements in order to earn food reinforcement in a two-lever experimental chamber. Subjects must alternate between two levers by switching to the other lever after pressing the first lever enough to get food reward. The exact number of presses required for each food reward changes, first increasing from 2 responses per food pellet up to 56 presses per food pellet, then decreasing back to 2 responses per pellet. Intermediate values were based on the quadratic function, x^2 - x. One cycle was an entire ascending and descending sequence of these lever press requirements (e.g., 2, 6, 12, 20, 30, 42, 56, 56, 42, 30, 20, 12, 6, and 2 presses per food reward). Six such full cycles were presented during each daily session.
Synthetic Aβ1-42 powder was dissolved in 1,1,1,3,3,3 hexafluorisopropanol (HFIP) to afford a solution of Aβ1-42 in HFIP of about 1 mM and allowed to incubate at ambient temperature for about 1 h. The resulting solution was chilled on ice for about 5-10 min, then aliquoted into eppendorf tubes to provide about 50 µl of solution per tube. The tubes were then placed in a chemical fume hood and allowed to stand overnight to allow the HFIP to evaporate under a slow stream of nitrogen. To removed final traces of HFIP, the tubes were subjected to two SpeedVac cycles of 15 min at room temperature and about 15 to 25 in Hg of vacuum. The resulting films of monomerized Aβ1-42 peptide were stored over desiccant at -80 °C until used.
A tube of monomerized Aβ1-42 peptide was warmed to room temperature and the Aβ1-42 peptide was dissolved in anhydrous DMSO to afford a peptide stock DMSO solution containing about 10 µM to about 100 µM Aβ1-42 peptide in DMSO.
2 µl of a 20 mM stock solution of test compound in anhydrous DMSO is added to 998 µl of neural basal media (phenol red free, Gibco 12348-017) to give a compound neural basal media solution containing 40 µM of test compound in neural basal media.
For the Aβ1-42 peptide only treatment, peptide stock DMSO solution is added to 37 °C neural basal to obtain the requisite Aβ1-42 peptide monomer concentration, provided that the maximum concentration of DMSO is 1% or less, and the tube is vortexed for 30 to 60 seconds, spun down briefly in a microfuge and incubated at 37 °C for 15 min prior to the start of injections.
For the Aβ1-42 peptide plus test compound treatment, peptide stock DMSO solution is added to 37 °C compound neural basal media solution to obtain the requisite Aβ1-42 peptide monomer concentration, provided that the maximum concentration of DMSO is 1% or less, and the tube is vortexed for 30 to 36 seconds, spun down briefly in a microfuge and incubated at 37 °C for 15 min prior to the start of injections.
For control injections, compound neural basal media solution is incubated at 37 °C for 15 min prior to the start of injections.
Rats: Rats were trained under ALCR until their error rates were stable. Once the rats were placed upon the final ALCR procedure, training sessions were conducted 7 days each week until the end of the study.
Surgery: All rats received a single 28 ga cannula, which was permanently affixed to the skull, and aimed at the lateral ventricle. Half the rats received cannula in the right ventricle and half received cannula in the left ventricle. Rats were allowed 5 days to recover from surgery before training resumed. […]

[3] = compound combined with Aβ1-42 ADDLs

T2 sequence (P05067 672-713 limits assumed): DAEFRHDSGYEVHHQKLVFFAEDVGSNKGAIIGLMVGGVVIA
T1 sequence (P05067 672-713 limits assumed): as above

| Compound | IC50 [1] | also measured |
| --- | --- | --- |
| NCCCS(=O)(=O)O [Alzhemed, 3-amino-1-propanesulfonic acid, reference compound] | – | inhibition of Aβ1-42 monomer assembly into Aβ oligomers ([1]; standard FRET assay conditions of Example 1, comparative example, FIG 2): inability |
| O=C(C/C(=N/NC(=O)c1ccccc1O)C(F)(F)F)c1cccs1 [Compound 2, 2-Hydroxy-benzoic acid [3-oxo-3-thiophen-2-yl-1-trifluoromethyl-prop-(Z)-ylidene]-hydrazide] | 26 µM | – |
| O=C(C/C(=N/NC(=O)c1ccccc1O)C(F)(F)F)c1ccco1 [Compound 3, 2-Hydroxy-benzoic acid [3-oxo-3-furan-2-yl-1-trifluoromethyl-prop-(Z)-ylidene)-hydrazide] | 13.5 µM | – |
| CCOC(=O)c1c(NC(=O)C(=O)N/N=C/c2ccccc2O)sc2c1CCC(C)C2 (centres unmarked) [Compound 7, 2-{[1-(2-Hydroxyphenyl)-meth-(E)-ylidene-hydrazinooxalyl]-amino} -6-methyl-4,5,6,7-tetrahydro-benzo[b]thiophene-3-carboxylic acid ethyl ester] | – | inhibition of Aβ1-42 oligomer assembly ([1]; 1 mM Aβ1-42 total monomer, 100 mM MgCl2, compound ranging from 0.05 to 3 mM, FIG. 1): dose dependent inhibition |
| CCC1=NN(C(=O)C(=O)Nc2ccccc2OC)C(O)(C(F)(F)F)C1 (centres unmarked) [Compound 8, 2-(3-ethyl-5-hydroxy-5-(trifluoromethyl)-4,5-dihydro-1H-pyrazol-1-yl)-N-(2-methoxyphenyl)-2-oxoacetamide] | 7 µM | – |
| CCCC1=NN(C(=O)C(=O)Nc2ccccc2OC)C(O)(C(F)(F)F)C1 (centres unmarked) [Compound 9, 2-(5-hydroxy-3-propyl-5-(trifluoromethyl)-4,5-dihydro-1H-pyrazol-1-yl)-N-(2-methoxyphenyl)-2-oxoacetamide] | 6.4 µM | – |
| COc1ccccc1NC(=O)C(=O)N1N=C(C(C)C)CC1(O)C(F)(F)F (centres unmarked) [Compound 10, 2-(5-hydroxy-3-isopropyl-5-(trifluoromethyl)-4,5-dihydro-1H-pyrazol-1-yl)-N-(2-methoxyphenyl)-2-oxoacetamide] | 24.3 µM | – |
| CCCC1=NN(C(=O)c2ccccc2O)C(O)(C(F)(F)F)C1 (centres unmarked) [Compound 12, (5-hydroxy-3-propyl-5-(trifluoromethyl)-4,5-dihydro-1H-pyrazol-1-yl)(2-hydroxyphenyl)methanone] | 8.5 µM | – |
| CCC1=NN(C(=O)C(=O)Nc2ccc(Br)cc2)C(O)(C(F)(F)F)C1 (centres unmarked) [Compound 13, N-(4-bromophenyl)-2-(3-ethyl-5-hydroxy-5-(trifluoromethyl)-4,5-dihydro-1H-pyrazol-1-yl)-2-oxoacetamide] | 17 µM | – |
| CCCC1=NN(C(=O)C(=O)NCCc2ccccc2)C(O)(C(F)(F)F)C1 (centres unmarked) [Compound 14, 2-(5-hydroxy-3-propyl-5-(trifluoromethyl)-4,5-dihydro-1H-pyrazol-1-yl)-2-oxo-N-phenethylacetamide] | 34.4 µM | – |
| CCCC1=NN(C(=O)C(=O)Nc2ccc(Br)cc2)C(O)(C(F)(F)F)C1 (centres unmarked) [Compound 15, N-(4-bromophenyl)-2-(5-hydroxy-3-propyl-5-(trifluoromethyl)-4,5-dihydro-1H-pyrazol-1-yl)-2-oxoacetamide] | 7.8 µM | – |
| CCCCC1=NN(C(=O)C(=O)NCCc2ccccc2)C(O)(C(F)(F)F)C1 (centres unmarked) [Compound 16, 2-(3-butyl-5-hydroxy-5-(trifluoromethyl)-4,5-dihydro-1H-pyrazol-1-yl)-2-oxo-N-phenethylacetamide] | 38.8 µM | – |
| CC(C)CC1=NN(C(=O)C(=O)NCCc2ccccc2)C(O)(C(F)(F)F)C1 (centres unmarked) [Compound 17, 2-(5-hydroxy-3-isobutyl-5-(trifluoromethyl)-0,5-dihydro-1H-pyrazol-1-yl)-2-oxo-N-phenethylacetamide] | 41.3 µM | – |
| CCCCCC1=NN(C(=O)C(=O)Nc2ccc(Br)cc2)C(O)(C(F)(F)F)C1 (centres unmarked) [Compound 18, N-(4-bromophenyl)-2-(5-hydroxy-3-pentyl-5-(trifluoromethyl)-4,5-dihydro-1H-pyrazol-1-yl)-2-oxoacetamide] | 11.6 µM | – |
| CCCCCC1=NN(C(=O)C(=O)Nc2ccc(OC)cc2)C(O)(C(F)(F)F)C1 (centres unmarked) [Compound 19, 2-(5-hydroxy-3-pentyl-5-(trifluoromethyl)-4,5-dihydro-1H-pyrazol-1-yl)-N-(4-methoxyphenyl)-2-oxoacetamide] | 8.7 µM | – |
| CC(C)CCC1=NN(C(=O)C(=O)NCCc2ccccc2)C(O)(C(F)(F)F)C1 (centres unmarked) [Compound 20, 2-(5-hydroxy-3-isopentyl-5-(trifluoromethyl)-4,5-dihydro-1H-pyrazol-1-yl)-2-oxo-N-phenethylacetamide] | 17 µM | – |
| CCCCCCC1=NN(C(=O)C(=O)Nc2ccc(OC)cc2)C(O)(C(F)(F)F)C1 (centres unmarked) [Compound 22, 2-(3-hexyl-5-hydroxy-5-(trifluoromethyl)-4,5-dihydro-1H-pyrazol-1-yl)-N-(4-methoxyphenyl)-2-oxoacetamide] | 8.2 µM | – |
| COc1ccccc1NC(=O)C(=O)N1N=C(C2CCCCC2)CC1(O)C(F)(F)F (centres unmarked) [Compound 23, 2-(3-cyclohexyl-5-hydroxy-5-(trifluoromethyl)-4,5-dihydro-1H-pyrazol-1-yl)-N-(2-methoxyphenyl)-2-oxoacetamide] | 29.1 µM | – |
| O=C(N/N=C/c1c(O)ccc2ccccc12)c1ccccc1O [Compound 24, (E)-2-hydroxy-N'-((2-hydroxynaphthalen-1-yl)methylene) benzohydrazide] | – | increase in Perseveration Errors ([2]; combined with the requisite concentration of Aβ1-42 ADDLs, result in words): eliminated the increase in Perseveration Errors; Approach Errors Mean [2, 3]: 1.00; Perseveration Errors Mean [2, 3]: 0.92; error rates ([2]; given alone, result in words): did not increase error rates; Approach Errors Mean ([2]; injectate given alone): 0.96; Perseveration Errors Mean ([2]; injectate given alone): 0.95 |
| O=C(N/N=C/c1cc(Br)cc(Br)c1O)c1ccccc1O [Compound 26, (E)-N'-(3,5-dibromo-2-hydroxybenzylidene)-2-hydroxybenzohydrazide] | 5.8 µM | – |
| O=C(N/N=C/c1cc(Br)ccc1O)c1ccccc1O [Compound 27, (E)-N'-(5-bromo-2-hydroxybenzylidene)-2-hydroxybenzohydrazide] | 19.3 µM | – |
| Aβ1-42 ADDLs: ADDLs made from synthetic Aβ1-42; soluble, oligomeric, globular, non-fibrillar, neurotoxic Aβ1-42 peptides | – | Approach Errors Mean ([2]; injectate given alone): 1.02; Perseveration Errors Mean ([2]; injectate given alone): 1.33; Perseveration Error rate ([2]; versus baseline error rates, ADDLs alone, result in words): significantly increased |
